Data as given in patent US20180344725A1, “QUINOLONE CHALCONE COMPOUNDS AND USES THEREOF” (priority 2015, published 2018).

Assays:
[1] = tested on: MDA-MB-231 human metastatic breast cancer cells; assay: Anti-tumor activity in xenograft mice; format: in vivo; conditions: Tax 10 mg/kg I.V. once/week, CTR 30 mg/kg I.P. every 3 days, or Tax 5 + CTR 15 mg/kg once/week
Method: Five-week old female CD-1 and ATH490 (strain code 490) athymic nude mice were purchased from Charles River (Quebec, Canada). The MDA-MB-231 human metastatic breast cancer cells were obtained from the American Tissue Culture Collection (ATCC, Manassas, Va., USA). Cells were maintained under humidified conditions at 37° C. and 5% CO2 in DMEM high glucose medium (ATCC) supplemented with 10% fetal bovine serum and antibiotics.
For paclitaxel treatments, 40 mg/ml stock solution of paclitaxel (Sigma, MO) was prepared in DMSO. Just before administration to mice, the paclitaxel stock solution was diluted ten-fold in a buffer containing 10% DMSO, 12.5% Cremophor, 12.5% ethanol, and 65% saline-based diluent (0.9% sodium chloride, 5% polyethylene glycol, and 0.5% tween-80) which is defined as vehicle (Huang et al., 2006). Alanine transaminase (ALT, SUP6001-c)/Aspartate transaminase (AST, SUP6002-c) color endpoint assay kits were purchased from ID Labs Biotechnology (London, Ontario, Canada). Elevation of ALT and AST levels in serum samples was used as an indicator of liver damage/injury.
To determine the anti-tumor activity of CTR compounds in animals, a xenograft model of human breast cancer cells in athymic nude mice was established. Exponentially growing MDA-MB-231 metastatic breast cancer cells were harvested and counted for inoculation into mice. Each mouse was subcutaneously injected at the flank with 10×10^6 cells in 0.2 ml ice cold 1×PBS. When tumor size reached 4-5 mm in diameter (n=4-5 per group), mice were randomly assigned into several groups as described herein.
(§1) Animals were monitored for food and water consumption every day, and their body weights and tumor volumes were measured twice per week. Tumor volumes were measured with a digital caliper and were determined by using the following formula: ½ length×width^2. Blood samples were collected via cardiac puncture and processed further for ALT and AST measurements. The animals were then immediately euthanized by carbon dioxide. Tumors and vital organs (spleen, kidney, liver and lung) were collected and fixed in 10% buffered formalin at 4° C. overnight before being processed for paraffin embedding. The paraffin-embedded blocks were then cut into 4-5 μm thick sections. Each section of tumors and organs was stained with hematoxylin and eosin (H&E).

[2] = Liver toxicity by AST and ALT; format: in vivo, mice; conditions: serum
Method: For paclitaxel treatments, 40 mg/ml stock solution of paclitaxel (Sigma, MO) was prepared in DMSO. […] Alanine transaminase (ALT, SUP6001-c)/Aspartate transaminase (AST, SUP6002-c) color endpoint assay kits were purchased from ID Labs Biotechnology (London, Ontario, Canada). Elevation of ALT and AST levels in serum samples was used as an indicator of liver damage/injury. Animals were monitored for food and water consumption every day, and their body weights and tumor volumes were measured twice per week. […] Blood samples were collected via cardiac puncture and processed further for ALT and AST measurements. The animals were then immediately euthanized by carbon dioxide. […] The paraffin-embedded blocks were then cut into 4-5 μm thick sections. Each section of tumors and organs was stained with hematoxylin and eosin (H&E). Changes in body weight, hemoglobin (Hb) and the amount and ratio of alanine transaminase (ALT)/aspartate transaminase (AST) were used to measure toxic effects. In addition, vital organs (liver, spleen, kidney and lung) were analyzed by […] after they were harvested, fixed, processed, paraffin-embedded, sectioned, and stained as described above.

[3] = Toxicology analysis of spleen (H&E); format: in vivo, mice; parameters: key to Red Pulp (RP): Myeloid elements: ↑↑: Double and single upward arrows indicate highly and moderately increased, respectively; ↑: Double and single upward arrows indicate highly and moderately increased, respectively; conditions: 30 days, Paclitaxel 10 mg/kg, CTR 30 mg/kg, or Tax (5) + CTR (15)
Method: as §1
(§2) Changes in body weight, hemoglobin (Hb) and the amount and ratio of alanine transaminase (ALT)/aspartate transaminase (AST) were used to measure toxic effects. In addition, vital organs (liver, spleen, kidney and lung) were analyzed by […] after they were harvested, fixed, processed, paraffin-embedded, sectioned, and stained as described above.
ATH490 athymic mice were sham-treated (vehicle only) or treated with compounds of the indicated doses for 30 days, followed by toxicity analysis after spleen tissues were H & E stained. The numbers in the brackets are mg per kg of body weight. Arrows indicate the presence of macrophages in the red pulp (RP). Images were taken using a Zeiss EPI-fluorescent microscope (10× objective). Drug administration was carried out as described in Table 11.

[4] = Body weight analysis; format: in vivo; conditions: ATH490 athymic mice; D0-D30
Method: as §1, §2
. Six-week old ATH40 athymic nude mice were treated as indicated in the legend. “Tax” denotes that paclitaxel was injected by i.v. as described in Table 11. D0-D30 denotes day 0 to day 30 post-drug treatment. The numbers in brackets show drug concentrations in mg/kg body weight. […]

[5] = tested on: RPMI-8226BTZR; assay: Killing of bortezomib-resistant multiple myeloma cells; format: cell-based
Text: The RPMI-8226BTZR over-expresses β1, β2 and β5 peptides of the 20S subunit. […] However, RPMI-8226BTZR is sensitive to CTR-20, CTR-21 and CTR-32 (FIG. 36).

[6] = tested on: HeLa cells; assay: Cell cycle analysis by flow cytometry; format: cell-based; conditions: 6-72 hours
Method: Approximately 1×10^6 cells per plate were seeded and grown overnight. Cells were then treated the next morning with test compounds, and harvested at the scheduled post-treatment times. The cell pellet was collected by centrifugation at 1,100 rpm (Allegra™ X-12 centrifuge, Beckman Coulter, Indianapolis, Ind.), followed by washing the cells twice with PBS, and fixing them with 75% ethanol for 12-24 hours at −20° C. Ethanol was removed by centrifugation at […] (Allegra™ X-12 centrifuge, Beckman Coulter); cells were suspended in PBS and centrifuged again at […] in the same rotor. The PBS was then removed and the cell pellet was resuspended and stained for 1 hour with propidium iodide (PI) staining solution (0.3% nonidet P-40, 100 μg/ml RNase A and 100 μg/ml PI in PBS). The DNA content in the different phases of the cell cycle was analysed by flow cytometry using Beckmann Coulter Cytomics FC500 (Mississauga, ON, Canada). The reversibility of drug effects was determined as follow: HeLa cells treated with a CTR compound for 12 hours were washed twice with 1×PBS, and then released them into pre-warmed drug-free complete medium for scheduled durations. The cells were then examined by confocal microscopy for their morphology or subjected to cell cycle analysis by flow cytometry after cells (DNA) were stained with propidium iodide.

[7] = Paclitaxel 10 mg/kg, CTR 30 mg/kg, or Paclitaxel (5) + CTR (15)

SMILES | tumor size (volume) ([1]; Day 0) [mm^3] | tumor size (volume) ([1]; Day 6) [mm^3] | tumor size (volume) ([1]; Day 14) [mm^3] | tumor size (volume) ([1]; Day 17) [mm^3] | tumor size (volume) ([1]; Day 20) [mm^3] | tumor size (volume) ([1]; Day 24) [mm^3] | tumor size (volume) ([1]; Day 27) [mm^3] | tumor size (volume) ([1]; Day 30) [mm^3] | ALT (IU/L) ([2]; CTR 20 mg/kg) | AST (IU/L) ([2]; CTR 20 mg/kg) | ALT (IU/L) [2, 7] [IU/L] | AST (IU/L) [2, 7] [IU/L] | Capsule [3] | Red Pulp (RP): Myeloid elements [3] | White pulp (WP) [3] | toxic side effect as determined by the changes in body weights [4] | sensitivity of RPMI-8226BTZR [5] | concentrations that caused mitotic arrest and, eventually, cell death [6] [nM]
COc1ccccc1C(=O)/C=C/c1cc2ccccc2[nH]c1=O [CTR-17, (E)-3-(3-(2-Methoxyphenyl)-3-oxoprop-1-enyl)quinolin-2(1H)-one] | 86.71 | 63.99 | 90.07 | 128.36 | 134.76 | 160.86 | 189.45 | 209.84 | 63.59 ± 9.73 | 101.00 ± 10.19 | 64.67 ± 5.26 | 114.13 ± 6.36 | Normal | elements: ↑ | Less but bigger | Neither CTR-17 nor CTR-20 caused any notable toxic side effect | – | –
COc1ccc2[nH]c(=O)c(/C=C/C(=O)c3ccccc3OC)cc2c1 [CTR-20, (E)-6-Methoxy-3-(3-(2-methoxyphenyl)-3-oxoprop-1-enyl) quinolin-2(1H)-one] | 92.51 | 69.89 | 84.64 | 97.11 | 97.22 | 106.26 | 124.88 | 140.63 | 56.77 ± 5.34 | 119.19 ± 4.03 | 50.50 ± 9.96 | 118.22 ± 17.00 | Normal | elements: ↑ | Less but bigger | Neither CTR-17 nor CTR-20 caused any notable toxic side effect | sensitive | –
COc1ccccc1C(=O)/C=C/c1cc2cccc(OC)c2[nH]c1=O [CTR-21, (E)-8-methoxy-3-(3-(2-methoxyphenyl)-3-oxoprop-1-enyl) quinolin-2(1H)-one] | – | – | – | – | – | – | – | – | – | – | – | – | – | – | – | – | sensitive | > 60
CCOc1ccccc1C(=O)/C=C/c1cc2ccccc2[nH]c1=O [CTR-32, (E)-3-(3-(2-ethoxyphenyl)-3-oxoprop-1-enyl)quinolin-2(1H)-one] | – | – | – | – | – | – | – | – | – | – | – | – | – | – | – | – | sensitive | > 50
CC(=O)O[C@H]1C(=O)[C@@]2(C)[C@H]([C@H](OC(=O)c3ccccc3)[C@]3(O)C[C@H](OC(=O)[C@H](O)[C@@H](NC(=O)c4ccccc4)c4ccccc4)C(C)=C1C3(C)C)[C@]1(OC(C)=O)CO[C@@H]1C[C@@H]2O [Paclitaxel, reference compound] | 91.84 | 90.11 | 94.66 | 92.33 | 81.66 | 95.61 | 139.41 | 170.36 | – | – | 52.02 ± 2.59 | 111.14 ± 13.42 | Normal | elements: ↑↑^a | Less but bigger | – | – | –
